Measured values reported in PubChem BioAssay AID2060885 (Molecular Pharmacology Branch, DTP, NCI, 2025).

Tested on: NCI-H23 complex spheroids with HUVEC/MSC, viability
Assay: Anticancer human tumor NCI-H23 cell line growth inhibition [RAS];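 also: spheroids exposed to compound for 7 days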;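 as to viability, T/C: 100% = DMSO vehicle control viability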
Details: for IC50: curve of first compound; for viability, T/C: stronger effect = lower value; active = viability on the fitted dose curve at most 10% of control; inactive = the rest
Summary of the method: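 Agents were tested in combination matrices in half-log decrements from a top concentration at or near clinical Cmax (10 microM if undetermined). Targets were multi-cell spheroids of tumour lines plus HUVEC and MSC stromal cells.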

[1] = second compound 0.000949 µM, first compound 0.0316 µM
[2] = second compound 0.000949 µM, first compound 0.1 µM
[3] = second compound 0.000949 µM, first compound 0.316 µM
[4] = second compound 0.000949 µM, first compound 1 µM
[5] = second compound 0.000949 µM, first compound 3.16 µM
[6] = second compound 0.000949 µM, first compound 10 µM
[7] = second compound 0.003 µM, first compound 0.0316 µM
[8] = second compound 0.003 µM, first compound 0.1 µM
[9] = second compound 0.003 µM, first compound 0.316 µM
[10] = second compound 0.003 µM, first compound 1 µM
[11] = second compound 0.003 µM, first compound 3.16 µM
[12] = second compound 0.003 µM, first compound 10 µM
[13] = second compound 0.00949 µM, first compound 0.0316 µM
[14] = second compound 0.00949 µM, first compound 0.1 µM
[15] = second compound 0.00949 µM, first compound 0.316 µM
[16] = second compound 0.00949 µM, first compound 1 µM
[17] = second compound 0.00949 µM, first compound 3.16 µM
[18] = second compound 0.00949 µM, first compound 10 µM
[19] = second compound 0.03 µM, first compound 0.0316 µM
[20] = second compound 0.03 µM, first compound 0.1 µM
[21] = second compound 0.03 µM, first compound 0.316 µM
[22] = second compound 0.03 µM, first compound 1 µM
[23] = second compound 0.03 µM, first compound 3.16 µM
[24] = second compound 0.03 µM, first compound 10 µM
[25] = second compound 0.0949 µM, first compound 0.0316 µM
[26] = second compound 0.0949 µM, first compound 0.1 µM
[27] = second compound 0.0949 µM, first compound 0.316 µM
[28] = second compound 0.0949 µM, first compound 1 µM
[29] = second compound 0.0949 µM, first compound 3.16 µM
[30] = second compound 0.0949 µM, first compound 10 µM
[31] = second compound 0.3 µM, first compound 0.0316 µM
[32] = second compound 0.3 µM, first compound 0.1 µM
[33] = second compound 0.3 µM, first compound 0.316 µM
[34] = second compound 0.3 µM, first compound 1 µM
[35] = second compound 0.3 µM, first compound 3.16 µM
[36] = second compound 0.3 µM, first compound 10 µM

CCC(CC)c1cc(NC2CCC(N)C2)n2nccc2n1 (stereo unspecified) + CCn1c(-c2cccnc2C(C)OC)c2c3cc(ccc31)N1CCOC(CC(NC(=O)C(C(C)C)N(C)C(=O)C3(F)CCN(C(=O)C#CC(C)(C)N(C)C)CC3)C(=O)N3CCCC(N3)C(=O)OCC(C)(C)C2)C1
< 31.6 nM: IC50 (second compound 0.000949 µM) | IC50 (second compound 0.003 µM) | IC50 (second compound 0.00949 µM) | IC50 (second compound 0.03 µM) | IC50 (second compound 0.0949 µM) | IC50 (second compound 0.3 µM)
inactive: viability, T/C [1] 32.7% | viability, T/C [2] 33.7% | viability, T/C [3] 24.4% | viability, T/C [4] 28% | viability, T/C [5] 3.12% | viability, T/C [7] 27.1% | viability, T/C [8] 25.2% | viability, T/C [9] 28.3% | viability, T/C [10] 25.9% | viability, T/C [13] 27.7% | viability, T/C [14] 25.1% | viability, T/C [15] 31.2% | viability, T/C [16] 25.8% | viability, T/C [19] 25.3% | viability, T/C [20] 28.2% | viability, T/C [21] 28% | viability, T/C [22] 25.3% | viability, T/C [25] 25.7% | viability, T/C [26] 25.3% | viability, T/C [27] 28.1% | viability, T/C [28] 24.1% | viability, T/C [31] 22.5% | viability, T/C [32] 24.1% | viability, T/C [33] 27.1% | viability, T/C [34] 20.8%
active: viability, T/C [6] 0.38% | viability, T/C [11] 1.84% | viability, T/C [12] 0.31% | viability, T/C [17] 1.37% | viability, T/C [18] 0.37% | viability, T/C [23] 0.57% | viability, T/C [24] 0.34% | viability, T/C [29] 0.71% | viability, T/C [30] 0.48% | viability, T/C [35] 0.58% | viability, T/C [36] 0.67%

Cc1nc(N2CCC3(CC2)COC(C)C3N)c(CO)nc1Sc1ccnc(N)c1Cl (stereo unspecified) + CCn1c(-c2cccnc2C(C)OC)c2c3cc(ccc31)N1CCOC(CC(NC(=O)C(C(C)C)N(C)C(=O)C3(F)CCN(C(=O)C#CC(C)(C)N(C)C)CC3)C(=O)N3CCCC(N3)C(=O)OCC(C)(C)C2)C1
active: viability, T/C [12] 8.35% | viability, T/C [18] 8.24% | viability, T/C [24] 9.82% | viability, T/C [30] 9.12% | viability, T/C [36] 9.33%
inactive: viability, T/C [1] 27.2% | viability, T/C [2] 21% | viability, T/C [3] 13.6% | viability, T/C [4] 15.3% | viability, T/C [5] 12.3% | viability, T/C [6] 9.03% | viability, T/C [7] 25.1% | viability, T/C [8] 20.2% | viability, T/C [9] 16.4% | viability, T/C [10] 16.7% | viability, T/C [11] 12.2% | viability, T/C [13] 24% | viability, T/C [14] 21.4% | viability, T/C [15] 18% | viability, T/C [16] 14.4% | viability, T/C [17] 11.5% | viability, T/C [19] 22.4% | viability, T/C [20] 19.1% | viability, T/C [21] 17.7% | viability, T/C [22] 11.7% | viability, T/C [23] 9.09% | viability, T/C [25] 20.3% | viability, T/C [26] 20.6% | viability, T/C [27] 15.1% | viability, T/C [28] 13.4% | viability, T/C [29] 8.28% | viability, T/C [31] 20% | viability, T/C [32] 17.1% | viability, T/C [33] 18.1% | viability, T/C [34] 11.3% | viability, T/C [35] 7.7%
< 31.6 nM: IC50 (second compound 0.000949 µM) | IC50 (second compound 0.003 µM) | IC50 (second compound 0.00949 µM) | IC50 (second compound 0.03 µM) | IC50 (second compound 0.0949 µM) | IC50 (second compound 0.3 µM)

NC1c2ccccc2OC12CCN(c1cnc3c(N4CCCc5ncccc54)n[nH]c3n1)CC2 (stereo unspecified) + CCn1c(-c2cccnc2C(C)OC)c2c3cc(ccc31)N1CCOC(CC(NC(=O)C(C(C)C)N(C)C(=O)C3(F)CCN(C(=O)C#CC(C)(C)N(C)C)CC3)C(=O)N3CCCC(N3)C(=O)OCC(C)(C)C2)C1
< 31.6 nM: IC50 (second compound 0.000949 µM) | IC50 (second compound 0.003 µM) | IC50 (second compound 0.00949 µM) | IC50 (second compound 0.03 µM) | IC50 (second compound 0.0949 µM) | IC50 (second compound 0.3 µM)
inactive: viability, T/C [1] 19.7% | viability, T/C [2] 16.4% | viability, T/C [3] 10.6% | viability, T/C [7] 20.7% | viability, T/C [8] 15.8% | viability, T/C [9] 11.7% | viability, T/C [13] 18.1% | viability, T/C [14] 15% | viability, T/C [15] 11.4% | viability, T/C [19] 17.8% | viability, T/C [20] 14.9% | viability, T/C [21] 11.8% | viability, T/C [25] 15% | viability, T/C [26] 12.7% | viability, T/C [31] 16.5% | viability, T/C [32] 11.5%
active: viability, T/C [4] 9.5% | viability, T/C [5] 7.93% | viability, T/C [6] 5.17% | viability, T/C [10] 8.99% | viability, T/C [11] 6.81% | viability, T/C [12] 5.13% | viability, T/C [16] 9.87% | viability, T/C [17] 5.94% | viability, T/C [18] 5.23% | viability, T/C [22] 8.83% | viability, T/C [23] 5.09% | viability, T/C [24] 5.86% | viability, T/C [27] 10.3% | viability, T/C [28] 7.47% | viability, T/C [29] 5.66% | viability, T/C [30] 5.23% | viability, T/C [33] 9.55% | viability, T/C [34] 6.6% | viability, T/C [35] 6.48% | viability, T/C [36] 5.71%
